Measurements published in US8357703B2, “Pyridines” (Hoffmann-La Roche Inc., priority 2009, dated 2013).
pKi: −log10 of the molar value.

The compounds below were run against T1, human GABA A α5β3γ2 receptor (Homo sapiens, UniProt P18507+P31644) (assay: [3H]flumazenil competition binding to HEK293 cells expressing human GABA A receptors). Conditions: competition for [3H]flumazenil (0.5 nM for α5); HEK293 cells expressing human (transiently transfected) receptors; means of two determinations; read-out: hKi GABA Aα5.
T1 construct: expressed in transfected cells; host or cells: HEK293 (transiently transfected), membranes
Procedure: The affinity of compounds at GABA A receptor subtypes was measured by competition for [^3H]flumazenil (85 Ci/mmol; Roche) binding to HEK293 cells expressing rat (stably transfected) or human (transiently transfected) receptors of composition α1β3γ2, α2β3γ2, α3β3γ2 and α5β3γ2.
Cell pellets were suspended in Krebs-tris buffer (4.8 mM KCl, 1.2 mM CaCl2, 1.2 mM MgCl2, 120 mM NaCl, 15 mM Tris; pH 7.5; binding assay buffer), homogenized by polytron for ca. 20 sec on ice and centrifuged for 60 min at 4° C. (50000 g; Sorvall, rotor: SM24=20000 rpm). The cell pellets were resuspended in Krebs-tris buffer and homogenized by polytron for ca. 15 sec on ice. Protein was measured (Bradford method, Bio-Rad) and aliquots of 1 mL were prepared and stored at −80° C.
Radioligand binding assays were carried out in a volume of […] (96-well plates) which contained […] of cell membranes, [^3H]flumazenil at a concentration of 1 nM for α1, α2, α3 subunits and 0.5 nM for α5 subunits and the test compound in the range of […]. Nonspecific binding was defined by 10^−5 M diazepam and typically represented less than 5% of the total binding. Assays were incubated to equilibrium for 1 hour at 4° C. and harvested onto GF/C uni-filters (Packard) by filtration using a Packard harvester and washing with ice-cold wash buffer (50 mM Tris; pH 7.5). After drying, filter-retained radioactivity was detected by liquid scintillation counting. Ki values were calculated using Excel-Fit (Microsoft) and are the means of two determinations.
Representative test results, obtained by the above described assay measuring binding affinity to HEK293 cells expressing human (h) receptors, are shown in table 1 below.

Compound | pKi
Cc1onc(OCC(C)C)c1COc1ccc(C(=O)NC(C)C)cn1 [Example 39, 6-((3-Isobutoxy-5-methyl-isoxazol-4-yl)methoxy)-N-isopropyl-nicotinamide] | 8.33
CCCCc1noc(C)c1CNc1ccc(C(=O)NC(C)C)cn1 [Example 42, 6-[((3-Butyl-5-methyl-isoxazol-4-yl)methyl)-amino]-N-isopropyl-nicotinamide] | 7.24
CCCCc1noc(C)c1CNc1ccc(C(=O)NC(C)CO)cn1 (stereo not drawn) [Example 43, 6-[((3-Butyl-5-methyl-isoxazol-4-yl)methyl)-amino]-N-(2-hydroxy-1-methyl-ethyl)-nicotinamide] | 7.11
CCCCc1noc(C)c1CNc1ccc(C(=O)NC2CCOCC2)cn1 [Example 44, 6-[((3-Butyl-5-methyl-isoxazol-4-yl)methyl)-amino]-N-(tetrahydro-pyran-4-yl)-nicotinamide] | 7.17

Stronger by pKi, values ahead:

pKi | Compound
8.40 | Cc1onc(N2CCCC2)c1COc1ccc(C(=O)NC(C)C)cn1 [Example 40, N-Isopropyl-6-((5-methyl-3-pyrrolidin-1-yl-isoxazol-4-yl)methoxy)-nicotinamide]
8.41 | Cc1onc(N2CCCC2)c1COc1ccc(C(=O)NC2CCOCC2)cn1 [Example 41, 6-((5-methyl-3-pyrrolidin-1-yl-isoxazol-4-yl)methoxy)-N-(tetrahydro-pyran-4-yl)-nicotinamide]
